# Reference: ChEMBL document CHEMBL1201862, “PubChem BioAssay data set” (2004)
#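 How tested: cells in 96-well plates exposed to compound for 48 hours at five concentrations. GI50: concentration for 50% inhibition of growth.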 Calls of active or inactive are those of the source. Rule as the data show it: active = GI50 up to about 1.1 µM and inactive = higher.
# Assays:
# Assay in all cases: NCI tumour cell line growth inhibition, 48 h
# HOP-92 = system: HOP-92
# K562 = system: K562
# KM12 = system: KM12
# MDA-N = system: MDA-N
# Malme-3M = system: Malme-3M
# NCI-H522 = system: NCI-H522
# OVCAR-3 = system: OVCAR-3
# OVCAR-5 = system: OVCAR-5
# PC-3 = system: PC-3
# RPMI-8226 = system: RPMI-8226
# SF-295 = system: SF-295
# SF-539 = system: SF-539
# SK-MEL-5 = system: SK-MEL-5
# SK-OV-3 = system: SK-OV-3
# SR = system: SR
# SW-620 = system: SW-620
# T47D = system: T47D
# UACC-257 = system: UACC-257
# BT-549 = system: BT-549
# SK-MEL-2 = system: SK-MEL-2
SMILES,GI50 (HOP-92),GI50 (K562),GI50 (KM12),GI50 (MDA-N),GI50 (Malme-3M),GI50 (NCI-H522),GI50 (OVCAR-3),GI50 (OVCAR-5),GI50 (PC-3),GI50 (RPMI-8226),GI50 (SF-295),GI50 (SF-539),GI50 (SK-MEL-5),GI50 (SK-OV-3),GI50 (SR),GI50 (SW-620),GI50 (T47D),GI50 (UACC-257),GI50 (BT-549),GI50 (SK-MEL-2)
CCCN(CCC)C(=O)c1c(Cl)c2cccnc2n2c(C)cnc12,73.3 µM (inactive),26.3 µM (inactive),51.1 µM (inactive),23.6 µM (inactive),> 100 µM (inactive),> 100 µM (inactive),47.9 µM (inactive),> 100 µM (inactive),23.9 µM (inactive),39.5 µM (inactive),> 100 µM (inactive),> 100 µM (inactive),37.8 µM (inactive),58.9 µM (inactive),32.9 µM (inactive),23.2 µM (inactive),11.7 µM (inactive),95.3 µM (inactive),,
O=C(Cn1c2c(c3ccccc31)CCCC2)NC1CCCCC1,,> 100 µM (inactive),,> 100 µM (inactive),> 100 µM (inactive),,96.4 µM (inactive),46.8 µM (inactive),88.7 µM (inactive),> 100 µM (inactive),51.3 µM (inactive),> 100 µM (inactive),> 100 µM (inactive),45.9 µM (inactive),,> 100 µM (inactive),,> 100 µM (inactive),> 100 µM (inactive),> 100 µM (inactive)
CC(C)(C)C(=O)CC(=O)C(F)(F)C(F)(F)C(F)(F)F,14.7 µM (inactive),15.8 µM (inactive),16.7 µM (inactive),15.4 µM (inactive),22.1 µM (inactive),,14.1 µM (inactive),35.4 µM (inactive),13.6 µM (inactive),11.1 µM (inactive),17.5 µM (inactive),24.8 µM (inactive),7.19 µM (inactive),20.9 µM (inactive),5.06 µM (inactive),18.8 µM (inactive),16 µM (inactive),15.3 µM (inactive),,16.4 µM (inactive)
Nc1ncnc2c1ncn2C1OC(CO)C2OC21 (stereo not given),> 100 µM (inactive),72.8 µM (inactive),> 100 µM (inactive),> 10 µM (inactive),> 10 µM (inactive),> 100 µM (inactive),> 10 µM (inactive),> 100 µM (inactive),> 100 µM (inactive),> 100 µM (inactive),> 100 µM (inactive),> 100 µM (inactive),> 100 µM (inactive),> 100 µM (inactive),> 100 µM (inactive),> 100 µM (inactive),> 100 µM (inactive),> 100 µM (inactive),,> 100 µM (inactive)
COc1ccccc1NS(=O)(=O)c1ccc2ncn(NS(=O)(=O)c3ccc(Cl)cc3)c(=O)c2c1,> 100 µM (inactive),3.36 µM (inactive),61.4 µM (inactive),67.9 µM (inactive),> 100 µM (inactive),> 100 µM (inactive),> 100 µM (inactive),63 µM (inactive),5.51 µM (inactive),26.9 µM (inactive),17.7 µM (inactive),> 100 µM (inactive),,> 100 µM (inactive),63.8 µM (inactive),> 100 µM (inactive),,> 100 µM (inactive),> 100 µM (inactive),45.2 µM (inactive)
O=C1c2c(ccc3c2CCC3)CC12Cc1ccccc1C2,10.5 µM (inactive),20.5 µM (inactive),22.5 µM (inactive),2.94 µM (inactive),18.9 µM (inactive),11.6 µM (inactive),17.7 µM (inactive),30 µM (inactive),25.1 µM (inactive),7.38 µM (inactive),91.4 µM (inactive),12.2 µM (inactive),10.9 µM (inactive),17.9 µM (inactive),,8.41 µM (inactive),28.2 µM (inactive),22.1 µM (inactive),,21.4 µM (inactive)
O=C1CCC2(CC1CC[S+]([O-])c1ccccc1)OCCO2 (stereo not given),> 100 µM (inactive),> 100 µM (inactive),> 100 µM (inactive),> 100 µM (inactive),> 100 µM (inactive),> 100 µM (inactive),> 100 µM (inactive),> 100 µM (inactive),> 100 µM (inactive),> 100 µM (inactive),> 100 µM (inactive),> 100 µM (inactive),> 100 µM (inactive),> 100 µM (inactive),> 100 µM (inactive),> 100 µM (inactive),> 100 µM (inactive),> 100 µM (inactive),,> 100 µM (inactive)
CC1(C)OP(=O)(c2ccccc2)C=C1Sc1ccc([N+](=O)[O-])cc1[N+](=O)[O-] (stereo not given),91.4 µM (inactive),27 µM (inactive),98.2 µM (inactive),71.8 µM (inactive),78.3 µM (inactive),19 µM (inactive),30.4 µM (inactive),> 100 µM (inactive),65.3 µM (inactive),,95.9 µM (inactive),33.7 µM (inactive),42.7 µM (inactive),> 100 µM (inactive),17.3 µM (inactive),65.5 µM (inactive),> 100 µM (inactive),> 100 µM (inactive),,> 100 µM (inactive)
Cc1cc(-c2[nH]c(C(=O)O)cc2I)on1,9.33 µM (inactive),> 100 µM (inactive),> 100 µM (inactive),> 100 µM (inactive),> 100 µM (inactive),> 100 µM (inactive),> 100 µM (inactive),29.2 µM (inactive),> 100 µM (inactive),> 100 µM (inactive),33.7 µM (inactive),,> 100 µM (inactive),76 µM (inactive),,> 100 µM (inactive),,> 100 µM (inactive),66.1 µM (inactive),> 100 µM (inactive)
COc1ccc(C#Cn2nnc3ccccc32)cc1,> 100 µM (inactive),> 100 µM (inactive),96.4 µM (inactive),> 100 µM (inactive),> 100 µM (inactive),48 µM (inactive),40.5 µM (inactive),> 100 µM (inactive),86.7 µM (inactive),26.1 µM (inactive),> 100 µM (inactive),> 100 µM (inactive),> 100 µM (inactive),,> 100 µM (inactive),> 100 µM (inactive),,50.4 µM (inactive),> 100 µM (inactive),92 µM (inactive)
COc1c2c(cc3nc4ccccc4nc13)CC[C@H](NC(C)=O)c1cc(=O)c(SC)ccc1-2,5.75 µM (inactive),0.29 µM (active),0.273 µM (active),0.18 µM (active),0.288 µM (active),0.275 µM (active),0.785 µM (active),24.5 µM (inactive),0.614 µM (active),0.538 µM (active),1.17 µM (inactive),0.304 µM (active),0.412 µM (active),5.28 µM (inactive),0.322 µM (active),0.582 µM (active),,1.59 µM (inactive),,3.05 µM (inactive)
Cc1nnc(Nc2ccccc2)o1,,> 100 µM (inactive),> 100 µM (inactive),> 100 µM (inactive),> 100 µM (inactive),> 100 µM (inactive),> 100 µM (inactive),> 100 µM (inactive),> 100 µM (inactive),> 100 µM (inactive),> 100 µM (inactive),> 100 µM (inactive),> 100 µM (inactive),> 100 µM (inactive),> 100 µM (inactive),> 100 µM (inactive),> 100 µM (inactive),> 100 µM (inactive),,70.8 µM (inactive)
O=C(OC1C(Oc2ccccc2COC(=O)C2(O)C=CCCC2=O)OC(CO)C(O)C1O)c1ccccc1 (stereo not given),0.094 µM (active),34.4 µM (inactive),27.4 µM (inactive),27 µM (inactive),18 µM (inactive),17.7 µM (inactive),,91.2 µM (inactive),28.4 µM (inactive),13.5 µM (inactive),,29.6 µM (inactive),1.28 µM (inactive),33.9 µM (inactive),19.4 µM (inactive),24.7 µM (inactive),,46.5 µM (inactive),,65.8 µM (inactive)
COCC(/N=C\N1CCCc2ccccc2[C@@H]1CCCCl)C(C)(C)C (stereo not given in full),7.19 µM (inactive),0.512 µM (active),4.24 µM (inactive),33.8 µM (inactive),0.332 µM (active),0.557 µM (active),0.209 µM (active),13.6 µM (inactive),0.482 µM (active),2.67 µM (inactive),17.2 µM (inactive),12.1 µM (inactive),1.31 µM (inactive),14.6 µM (inactive),2.05 µM (inactive),13 µM (inactive),21.2 µM (inactive),0.798 µM (active),,17.1 µM (inactive)
COC(=O)/C(C)=N/N=C(\S)SC,> 100 µM (inactive),75 µM (inactive),52.5 µM (inactive),77.1 µM (inactive),,22.7 µM (inactive),24.8 µM (inactive),80.2 µM (inactive),36.5 µM (inactive),66.4 µM (inactive),40.2 µM (inactive),82.6 µM (inactive),29.2 µM (inactive),> 100 µM (inactive),49.7 µM (inactive),44.3 µM (inactive),18.1 µM (inactive),50.9 µM (inactive),,31 µM (inactive)
C/C(=N\Nc1nc2ccccc2o1)c1cc(C)ncn1,,0.0356 µM (active),0.0851 µM (active),2.42 µM (inactive),0.0327 µM (active),< 0.01 µM (active),< 0.0223 µM (active),0.618 µM (active),0.0383 µM (active),0.0306 µM (active),0.0745 µM (active),0.107 µM (active),0.0381 µM (active),0.0675 µM (active),0.124 µM (active),< 0.0201 µM (active),,< 0.0211 µM (active),0.305 µM (active),1.38 µM (inactive)
